Where a name gives a salt, the structure may show the parent alone.
Experiments:
[1] = Phase I metabolic stability in rat liver microsomes; type: in vitro ADME; conditions: rat liver microsomes fortified with NADPH, 60 min incubation, 10 μM compound
[2] = Pharmacokinetic study in rats, plasma and brain; type: in vivo; conditions: rat, plasma, po, 10 mg/kg
[3] = tested on: Long-Evans rats; assay: Oxycodone self-administration under FR1 reinforcement; type: in vivo, rat
[4] = tested on: DAT-Cre mice; assay: Optical intracranial self-stimulation; type: in vivo, mouse; conditions: for effect on oICSS: 5 min prior to testing, vs vehicle
[5] = tested on: rats; assay: Hot plate thermal nociception test; type: in vivo, rat
[6] = tested on: wild-type C57BL/6J mice; assay: Sucrose self-administration; type: in vivo, mouse
[7] = tested on: rats; assay: Open-field locomotor activity; type: in vivo, rat; conditions: 10 or 20 mg/kg i.p., vs vehicle
[8] = tested on: Long-Evans rats; assay: Oxycodone self-administration under progressive-ratio; conditions: 20 mg/kg i.p., normalized to baseline, vs vehicle
[9] = ref Higley et al., 2011, Maramai et al., 2016, Nathan et al., 2012, Stossel et al., 2017, Thanos et al., 2008, Thomsen et al., You et al.; cited from earlier work
[10] = ref Xi and Gardner, 2007; cited from earlier work
[11] = tested on: rats; conditions: ref You et al., 2017, cited from earlier work
[12] = tested on: rats; conditions: ref Ashby et al., 2003; cited from earlier work

CCc1cccc(N2CCN(C[C@H](O)CCNC(=O)c3cc4ccccc4[nH]3)CC2)c1Cl.Cl [R-VK4-40, (R)-N-(4-(4-(2-Chloro-3-ethylphenyl)piperazin-1-yl)-3-hydroxybutyl)-1H-indole-2-carboxamide HCl]
% intact remaining [1]: 86±2%
AUC(0-t) [2]: 1990 ± 280 nM·h
Cmax [2]: 0.31 ± 0.11 µM
effect on oxycodone self-administration (infusions earned) ([3]; FR1, 10 or 20 mg/kg i.p. 30 min before session, oxycodone 0.0031-0.05 mg/kg/infusion): dose-dependent reduction in oxycodone self-administration
effect on daily oxycodone intake ([3]; FR1, 10 or 20 mg/kg i.p. pretreatment): reduced oxycodone intake at the 0.00625 and 0.05 mg/kg doses
effect on inactive lever responding ([3]; FR1 oxycodone self-administration): no effect on inactive lever responding
effect on oICSS, compound alone ([4]; R-VK4-40 alone i.p. (10, 20 mg/kg as printed elsewhere in the source)): significant reduction in oICSS
effect of pretreatment on oxycodone-enhanced oICSS ([4]; pretreatment before 1 mg/kg oxycodone): significantly reduced low-dose (1 mg/kg) oxycodone enhancements in oICSS
effect of pretreatment on %MPE ([5]; 20 mg/kg i.p., after 1 mg/kg oxycodone): significant elevation of %MPE
effect of pretreatment on oxycodone analgesia dose-response curve ([5]; 10 or 20 mg/kg i.p. 30 min before oxycodone 0.5-4 mg/kg i.p.): shifted the oxycodone dose-response curve significantly upward
effect on number of sucrose reinforcers earned ([6]; 3 mg/kg i.p., vs vehicle): no statistically significant differences
effect on number of sucrose reinforcers earned ([6]; 10 mg/kg i.p., vs vehicle and 3 mg/kg): significantly reduced the number of sucrose reinforcers earned
effect on open-field locomotion [7]: no effect on open-field locomotion
effect on PR break-point for oxycodone self-administration [8]: significant decrease in break-point

O=C(NCCCCN1CCN(c2cccc(Cl)c2Cl)CC1)c1ccc2c(c1)Cc1ccccc1-2 [NGB-2904]
effect on food-taking and food-seeking behavior [9]: significantly inhibit food-taking and food-seeking behavior
effect on cocaine-induced extracellular nucleus accumbens DA [10]: enhanced cocaine-induced increases in extracellular nucleus accumbens DA

COc1ccc2c3c1O[C@H]1C(=O)CC[C@@]4(O)[C@@H](C2)N(C)CC[C@]314 [oxycodone, Oxycodone HCl, reference compound]
effect on oICSS ([4]; 1 mg/kg i.p.): significant increase in oICSS
effect on oICSS ([4]; 3 mg/kg i.p.): significant reduction in oICSS
time of peak antinociceptive effect ([5]; hot plate, after administration): 30 min

CCc1cc(Cl)c(OC)c(N2CCN(CC(O)CCNC(=O)c3cc4ccccc4[nH]3)CC2)c1 (racemic) [(±)VK4-116]
effect on oxycodone self-administration ([11]; FR1 and PR schedules): dose-dependently inhibited oxycodone self-administration
effect on oxycodone-triggered reinstatement of drug-seeking [11]: suppressed oxycodone-triggered reinstatement of drug-seeking behavior

N#Cc1ccc2c(c1)CCN(CCC1CCC(NC(=O)c3ccnc4ccccc34)CC1)C2 (stereo not shown) [SB-277011A]
effect on food-taking and food-seeking behavior [9]: significantly inhibit food-taking and food-seeking behavior
effect on opioid-induced conditioned place preference [12]: significantly inhibits opioid-induced conditioned place preferences (CPP)

Cc1ncoc1-c1nnc(SCCCN2C[C@@H]3C[C@]3(c3ccc(C(F)(F)F)cc3F)C2)n1C [GSK598809]
effect on food-taking and food-seeking behavior [9]: significantly inhibit food-taking and food-seeking behavior

O=C(NC/C=C/CN1CCN(c2cccc(Cl)c2Cl)CC1)c1ccc(-c2ccccn2)cc1 [PG01037]
effect on food-taking and food-seeking behavior [9]: significantly inhibit food-taking and food-seeking behavior

From PMC6745270 (Neuropharmacology, 2019)
